Consider five compounds from patent publication US6369003B1, “Process and composition for soil improvement by reducing microbially formed ethylene in the soil” (BASF Aktiengesellschaft, priority 1994, dated 2002).

The test system of one experiment is mutant EZ (Sym5) of peas. To be noted: severely reduced nodule formation of the mutant; Fearn and La Rue 1991; cited from earlier work.
A further experiment deals with pea variety Sparkle. To be noted: nodule formation reduced by provision of light in the root area; Lee and La Rue; cited from earlier work.
For experiment [1], the system named is pea varieties Sparkle and Rondo. The note with it: Lee and La Rue, cited from earlier work.
A further experiment relates to parent strain Sparkle. The note with it: Fearn and La Rue 1991; cited from earlier work.
Experiment [2] relates to Soybean plants (Delta Pine 415). The experiment is described as follows: Soybeans test 3c: root nodules and total N, greenhouse. The class given is in vivo, Glycine max. The note with it: for Nodules: untreated 46. On the procedure: In these tests various types of non-sterile soils were used. The cultivation of the plants was carried out under greenhouse or climatic chamber conditions. The active compounds according to the invention were applied uniformly distributed over the soil surface in an aqueous preparation after the emergence of the respective test plants. The supply of water for the plants was carrried out using the same technique, always paying attention to uniform moistness of the soil. In the case of the cultivation of legumes, defined amounts of species-specific Rhizobia were admixed to the soil. In some cases inoculation was also carried out by seed treatment.
a) Soybean plants (Delta Pine 415) were cultivated under greenhouse conditions in low N Limburgerhof soil in plastic pots (500 ml) and watered from above as required. A few days after emergence the plants were thinned out to 5 plants per pot.
In 8 pots in each case per test member an aqueous active compound solution of 2.3.1.3 was applied by watering. 16 pots remained untreated in each case.
c) Test procedure as in 3 a)

A further experiment concerns soybean plants. The note with it: even at distinctly higher ethylene administration; Lee and La Rue; cited from earlier work.
The next experiment concerns white sweetclover. The note with it: 0.07 μl/l of ethylene gas/l of air; Lee and La Rue; cited from earlier work.
Where [3] appears, read: 0.030 mg of a.s./pot; procedure as in 3 a).
Setting [4] is: 0.300 mg of a.s./pot; procedure as in 3 a).

Read-outs that look alike come from different tables or passages of the source.

For the compound `O=S(=O)([O-])[O-].[Ag+].[Ag+]` [Ag2SO4], the nodule formation entry with mutant EZ (Sym5) of peas is “partially restored”; with pea variety Sparkle it was “reverse the reduced nodule formation by light”; in experiment [1] (peas (Sparkle), in the presence of ethylene) it was “normal nodule formation could be restored”. Besides, the nodulation entry in the experiment with parent strain Sparkle was “not affected”.
In the case of `O=[N+]([O-])[O-].O=[N+]([O-])[O-].[Co+2]` [Co(NO3)2], the nodule formation result in the experiment with mutant EZ (Sym5) of peas is given as “partially restored”. The nodulation entry in the experiment on parent strain Sparkle is recorded as “not affected”.
For `CCCCCCOC(=O)CON=C(C)C` [active compound 2.3.1.4], in experiment [2] (setting [3]), the “Total N (shoots + root)” value was 103 % of control and the Nodules was determined as 55 number/pot. In experiment [2] (setting [4]), the “Total N (shoots + root)” value is given as 110 % of control and the Nodules turned out to be 66 number/pot.
On to `CC(C)OCOC(=O)CON=C1CCCCC1` [active compound 2.3.1.5], for which the “Total N (shoots + root)” value in experiment [2] (setting [3]) is 104 % of control; in experiment [2] (setting [4]), 107 % of control. Also, the Nodules in experiment [2] (setting [3]) stood at 70 number/pot; in experiment [2] (setting [4]), 61 number/pot.
As for `C=C` [ethylene], the nodule formation entry (in experiment [1] (0.07 μl/l of ethylene gas/l of air); with white sweetclover) was “severe reduction in nodule formation” in each case. The nodulation entry with soybean plants is “no significant effect on nodulation”.
